Data on 7 molecules can be found in ChEMBL document CHEMBL1201862, “PubChem BioAssay data set” (2004).

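Protocol summary: plate cells (96-well), add compound at 5 concentrations, incubate 48 h, interpolate endpoints linearly. GI50 marks 50% less growth.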 Active and inactive are the calls of the source. Rule as the data show it: active = GI50 up to about 1.1 µM and inactive = higher.

Some test systems named below: 786-0; A549; CCRF-CEM; HCT-116; HL-60; HOP-62; HOP-92; HT-29; MOLT-4; OVCAR-3; OVCAR-4; OVCAR-8; SF-295; SF-539; SR; TK-10; U-251; UACC-257; UACC-62; UO-31.
Holding throughout (assay): NCI tumour cell line growth inhibition, 48 h

On to `Cc1c(C)n(-c2ccccc2)c2nc([S+](C)[O-])nc([S+](C)[O-])c12` (stereo not given), for which the GI50 in the assay on 786-0 was 2.56 µM (inactive); in the assay on A549 it was 16.6 µM (inactive); in the assay with CCRF-CEM, 1.55 µM (inactive); with HCT-116 it was 2.14 µM (inactive); in the assay with HL-60, 1.38 µM (inactive); in the assay on HOP-62, 18.4 µM (inactive). Also, the GI50 in the assay with HOP-92 is 1.96 µM (inactive); with HT-29, 6.05 µM (inactive); with MOLT-4 it was 2.33 µM (inactive); with OVCAR-3, 2.61 µM (inactive); in the assay on OVCAR-4 it was 4.85 µM (inactive); in the assay on OVCAR-8, 4.09 µM (inactive). Further, the GI50 with SF-295 is 17.6 µM (inactive); with SF-539 it was 3.85 µM (inactive); in the assay on SR it was 0.809 µM (active); in the assay on TK-10, 1.52 µM (inactive); in the assay on U-251, 8.53 µM (inactive); in the assay on UACC-257, 11.8 µM (inactive). Besides, the values for the GI50 in the assay with UACC-62 and in the assay on UO-31 were 6.03 µM (inactive) and 7.74 µM (inactive), respectively.
Turning to `CC(C)(C)C1CCC2c3c([nH]c4ncccc34)C3C(=O)N(c4ccccc4)C(=O)C3C2C1` (stereo not given), the GI50 with 786-0 is > 100 µM (inactive); in the assay on A549, > 100 µM (inactive); with CCRF-CEM, 49.7 µM (inactive); in the assay with HCT-116, > 100 µM (inactive); in the assay on HL-60, 65.9 µM (inactive); in the assay with HOP-62, > 100 µM (inactive). Further, the GI50 in the assay with HOP-92 is > 100 µM (inactive); in the assay on HT-29, > 100 µM (inactive); in the assay on MOLT-4, > 100 µM (inactive); with OVCAR-3, > 100 µM (inactive); with OVCAR-4, > 100 µM (inactive); in the assay with OVCAR-8, 99.3 µM (inactive). Further, the GI50 in the assay with SF-295 was > 100 µM (inactive); in the assay on SF-539, > 100 µM (inactive); in the assay with SR, 36.1 µM (inactive); with TK-10, > 100 µM (inactive); with U-251 it was > 100 µM (inactive); in the assay on UACC-257, > 100 µM (inactive). The GI50 in the assay on UACC-62 and in the assay on UO-31 was > 100 µM (inactive) throughout.
Regarding `CSc1ccc(-c2cn3ccsc3n2)c(O)c1`, the GI50 in the assay on 786-0 was 20.7 µM (inactive); in the assay with A549, > 90.8 µM (inactive); in the assay with CCRF-CEM it was 16.1 µM (inactive); in the assay on HCT-116, 30.3 µM (inactive); in the assay with HL-60, 17 µM (inactive); in the assay with HOP-62 it was 49.9 µM (inactive). The GI50 was 47.3 µM (inactive) with HOP-92; 83.2 µM (inactive) in the assay on HT-29; 30.5 µM (inactive) in the assay with MOLT-4; 36.7 µM (inactive) with OVCAR-3; > 49.4 µM (inactive) in the assay on OVCAR-4; > 89.9 µM (inactive) in the assay with OVCAR-8. In addition, the GI50 in the assay with SF-295 was 39 µM (inactive); with SF-539 it was 32.7 µM (inactive); in the assay with SR, 40.6 µM (inactive); in the assay on TK-10 it was 61.8 µM (inactive); with U-251, 46 µM (inactive); with UACC-257, > 24.2 µM (inactive). The GI50 in the assay on UACC-62 was 69.7 µM (inactive); in the assay on UO-31, 59.8 µM (inactive).
For the molecule `CC1(C)C(O)c2ccccc2OC1N1CCN(C2Oc3ccccc3C(O)C2(C)C)CC1` (stereo not given), the GI50 in the assay with 786-0, in the assay on A549, in the assay on CCRF-CEM, with HCT-116, in the assay with HL-60 and in the assay on HOP-62 was > 100 µM (inactive) in each case. The GI50 with HOP-92, in the assay with HT-29, in the assay with MOLT-4, in the assay on OVCAR-3, in the assay with OVCAR-4 and in the assay on OVCAR-8 was > 100 µM (inactive) throughout. In addition, the GI50 in the assay on SF-295 was > 100 µM (inactive); in the assay with SF-539, > 100 µM (inactive); with SR it was > 100 µM (inactive); in the assay on TK-10, > 10 µM (inactive); in the assay on U-251 it was > 100 µM (inactive); in the assay with UACC-257 it was > 100 µM (inactive). For the same molecule, the GI50 in the assay with UACC-62 and in the assay with UO-31 was > 100 µM (inactive) each time.
`CCOC(=O)c1sc2ncnc(N)c2c1C`: the GI50 with 786-0 is 53.8 µM (inactive); in the assay on A549 it was > 100 µM (inactive); in the assay with CCRF-CEM it was 62.1 µM (inactive); in the assay with HCT-116 it was 30.5 µM (inactive); in the assay on HL-60, > 100 µM (inactive); in the assay on HOP-62, 80 µM (inactive). For the same molecule, the GI50 in the assay with HOP-92 is 8.99 µM (inactive); in the assay with HT-29, 18.2 µM (inactive); in the assay with MOLT-4, 65.2 µM (inactive); in the assay with OVCAR-3, > 100 µM (inactive); in the assay with OVCAR-4, 20.4 µM (inactive); in the assay with OVCAR-8, 35 µM (inactive). In addition, the GI50 was 79.4 µM (inactive) in the assay with SF-295; 75.5 µM (inactive) in the assay with SF-539; 24.8 µM (inactive) in the assay on SR; 34 µM (inactive) with TK-10; > 100 µM (inactive) in the assay on U-251; 34.4 µM (inactive) in the assay with UACC-257. For the same molecule, the GI50 with UACC-62 is 35.3 µM (inactive); with UO-31, 82.4 µM (inactive).
Take `CC[N+](CC)(CC)Cc1cn(S(=O)(=O)c2ccccc2)c2ccccc12`: the GI50 with 786-0, with A549, in the assay on CCRF-CEM, in the assay on HCT-116, with HL-60 and in the assay on HOP-62 was > 100 µM (inactive) each time. The GI50 in the assay on HOP-92, in the assay on HT-29, with MOLT-4, in the assay with OVCAR-3, in the assay on OVCAR-4 and with OVCAR-8 was > 100 µM (inactive) in each case. The GI50 with SF-295, with SF-539, in the assay with SR, in the assay with TK-10, with U-251 and with UACC-257 was > 100 µM (inactive) throughout. The GI50 in the assay with UACC-62 and in the assay with UO-31 was > 100 µM (inactive) in each case.
As to `CCCCCC1=C/C(=C\c2[nH]c(-c3ccc[nH]3)cc2OC)N=C1C`, the GI50 in the assay on 786-0 was < 0.01 µM (active); in the assay on A549, 0.0167 µM (active); in the assay with CCRF-CEM it was < 0.01 µM (active); in the assay with HCT-116, < 0.01 µM (active); in the assay with HL-60, < 0.01 µM (active); in the assay on HOP-62 it was 0.0111 µM (active). Besides, the GI50 in the assay with HOP-92, in the assay on HT-29, in the assay with MOLT-4, in the assay on OVCAR-3, with OVCAR-4 and with OVCAR-8 was < 0.01 µM (active) in each case. Moreover, the GI50 is < 0.01 µM (active) in the assay on SF-295; 0.0127 µM (active) in the assay on SF-539; < 0.01 µM (active) in the assay on SR; 0.0329 µM (active) in the assay with TK-10; 0.0122 µM (active) in the assay with U-251; 0.0684 µM (active) in the assay on UACC-257. Moreover, the GI50 with UACC-62 is < 0.01 µM (active); in the assay with UO-31 it was 0.011 µM (active).
